Measured values: patent US20150141523A1, “COMPOUNDS FOR USE IN THE TREATMENT OF AUTOIMMUNE INFLAMMATORY DISEASE” (Venantius Limited, priority 2012, published 2015)

Tests used:
BalbC mice = test: Arachidonic acid mouse ear oedema model; type: in vivo; conditions: 300 μg/ear in acetone, topical; arachidonic acid alone 86%
Description: The arrachidonic mouse ear oedema model is an acute inflammation model based on activation of ecosanoid pathways. The mouse ear oedema model was performed using BalbC mice (25-35 g), of either sex. The ear was treated by the topical application (10 μl) of solvent (acetone 100%) or test drug (300 μg/ear in acetone) or Indomethacin (300 μg/ear in acetone). After one hour, oedema was induced by the topical application of arachidonic acid (10 μl at 0.4 g/ml in acetone). The width of each ear was measured, both before and 60 min after the induction of oedema, using a micrometer screw gauge. Ear oedema was calculated by comparing the ear width before and after induction of oedema and expressed as percentage normal. Animals were killed using CO2, without recovering from sedation.

CD-1 mice = test: Sheep red blood cell (SRBC) delayed-type hypersensitivity mouse paw swelling; type: in vivo; conditions: 30 mg/kg; vehicle 89%
Description: The sheep red blood cells were first cleaned and counted as follows. 5 mls of the SRBC were spun down in a centrifuge at 3000 rpm for 10 minutes. The supernatant was removed and phosphate buffered saline (PBS), pH 7.4 added to the pellet. The pellet was mixed with the PBS buffer (5 mls) and spun down in a centrifuge at 3000 rpm for 10 minutes. The pellet was washed twice more with PBS buffer as described above. The pellet was then reconstituted in 5 mls of PBS buffer following the final wash. 10 μl of a 1 in 200 dilution of the sample of reconstituted sheep red blood cells (in trypan blue stain) was used to fill the counting chamber of a haemacytometer and the number of sheep red blood cells counted.
Male CD-1 mice (30-40 gms) were sensitised on day zero. The negative control group was sensitised with 100 μl PBS intraperitoneally (i.p.), while the positive control group and drug treated groups were sensitised with 1×10^7 SRBC (100 μl i.p.).
Animals were challenged 5 days later with SRBC. The SRBC were cleaned and counted as described above. Animals anaesthetised with halothane were challenged s.c. by injecting SRBC (3×10^8 cells in 20 μl) into the right hind paws and PBS (20 μl) into the left hind paws. […]
The difference in paw swelling between the saline-injected and SRBC-challenged contralateral paw of each mouse was calculated by measuring paw volume (mls) using a plethysmometer. […]

Balb/C mice = test: Oxazolone contact hypersensitivity (CHS) mouse ear swelling; type: in vivo; conditions: P>0.05
Description: Female Balb/C mice (30-40 gms) were sensitised on day 0 with 20 μl of 2% oxazolone in acetone on each ear (10 μl on the inner and outer aspects of both ears). All mice were challenged on day 5 with 20 μl of 2% oxazolone in acetone only on the right ear; again, 10 μl on both the inner and outer aspects of the ear. Immediately following this, the mice were treated with test compound. The test compound was administered in exactly the same way as the oxazolone, with 10 μl on each side of the right ear. […] For the […] group, acetone was administered. All animals were killed 24 hrs later and the percentage increase in ear swelling was calculated. This was done in two ways. The thickness of the unchallenged left ear and the challenged right ear were measured using a micrometer caliper (μm). The increase in weight of both ears was also measured using a 5 mm biopsy punch (mgs). The percentage increase in oedema was then calculated for both weight and thickness by expressing the difference between the unchallenged left ear and the challenged right ear as a percentage of the left ear control.

[1] = test system: β-hexosaminidase release from RBL-2H3 cells; conditions: RBL-2H3 cells stimulated by calcium ionophore A23187; Bioorg. Med. Chem. Lett. 19(20), 2009; cited from earlier work

Compound	ear swelling (increase in ear thickness) (BalbC mice) [%]	SRBC paw swelling (CD-1 mice) [%]	effect on oxazolone mouse ear swelling (Balb/C mice)	inhibition of β-hexosaminidase release [1]
O[C@@H]1c2ccccc2C[C@]1(Cc1ccccc1)C1=Cc2ccccc2C1 (mixture of isomers) [Compound 5, (R,S and SR)2-Benzyl-2,3-dihydro-1H,1′H-2,2′-biinden-1-ol]	62	60	no significant effect	dose-dependant inhibition
O[C@H]1c2ccccc2C[C@]1(Cc1ccccc1)C1=Cc2ccccc2C1 (mixture of isomers) [Compound 6, (S,S and RR)2-Benzyl-2,3-dihydro-1H,1′H-2,2′-biinden-1-ol]	50	52	no significant effect	–
